This is an account of results in ChEMBL document CHEMBL2449286, “Structure-activity data for a series of P-glycoprotein inhibitors (Supplementary Data to CHEMBL1142990)”.

The experiment has as its target ATP-dependent translocase ABCB1 (Homo sapiens, UniProt P08183).

Sequence of ATP-dependent translocase ABCB1 (P08183 whole entry): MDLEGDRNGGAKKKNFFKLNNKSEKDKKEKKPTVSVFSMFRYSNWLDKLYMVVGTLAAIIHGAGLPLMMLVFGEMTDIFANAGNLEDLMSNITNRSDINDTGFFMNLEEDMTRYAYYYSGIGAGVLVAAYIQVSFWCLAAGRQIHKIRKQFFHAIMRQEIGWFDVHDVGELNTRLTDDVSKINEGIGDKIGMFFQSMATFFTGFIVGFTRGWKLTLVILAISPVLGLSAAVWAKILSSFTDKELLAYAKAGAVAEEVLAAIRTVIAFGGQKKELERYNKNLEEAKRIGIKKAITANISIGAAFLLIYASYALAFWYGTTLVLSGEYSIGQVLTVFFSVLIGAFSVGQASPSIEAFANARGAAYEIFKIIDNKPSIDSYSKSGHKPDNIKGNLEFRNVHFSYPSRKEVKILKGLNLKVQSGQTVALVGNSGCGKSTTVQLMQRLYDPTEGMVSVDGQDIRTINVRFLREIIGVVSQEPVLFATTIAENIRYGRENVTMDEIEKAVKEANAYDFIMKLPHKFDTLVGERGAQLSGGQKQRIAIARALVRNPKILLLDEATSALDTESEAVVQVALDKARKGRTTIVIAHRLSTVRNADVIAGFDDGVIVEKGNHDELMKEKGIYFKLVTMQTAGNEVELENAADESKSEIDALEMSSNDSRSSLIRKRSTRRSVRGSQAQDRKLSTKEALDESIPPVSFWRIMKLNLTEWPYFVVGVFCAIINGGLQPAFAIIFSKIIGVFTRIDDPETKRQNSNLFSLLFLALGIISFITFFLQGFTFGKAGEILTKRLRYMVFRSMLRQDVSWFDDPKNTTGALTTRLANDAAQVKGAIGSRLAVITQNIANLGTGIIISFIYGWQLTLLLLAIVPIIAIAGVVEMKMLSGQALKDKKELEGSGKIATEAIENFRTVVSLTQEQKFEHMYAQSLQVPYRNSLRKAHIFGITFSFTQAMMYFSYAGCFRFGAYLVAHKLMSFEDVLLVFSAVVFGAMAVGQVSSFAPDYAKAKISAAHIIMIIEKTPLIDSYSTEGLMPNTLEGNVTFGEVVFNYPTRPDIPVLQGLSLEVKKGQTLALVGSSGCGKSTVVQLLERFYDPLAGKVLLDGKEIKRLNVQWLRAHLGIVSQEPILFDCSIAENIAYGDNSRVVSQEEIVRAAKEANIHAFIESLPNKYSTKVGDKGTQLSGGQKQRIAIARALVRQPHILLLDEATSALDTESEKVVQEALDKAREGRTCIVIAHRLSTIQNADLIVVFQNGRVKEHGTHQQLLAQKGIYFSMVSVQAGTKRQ

The molecule `CCCNC[C@@H](O)COc1ccc(OCc2ccccc2)cc1C(=O)CCc1ccccc1` had an EC50 of 0.11 µM. For `O=C(CCc1ccccc1)c1cc(OCc2ccccc2)ccc1OC[C@H](O)CN1CCCCC1`, the half-maximal effective concentration (EC50) was 0.174 µM. On to `O=C(CCc1ccccc1)c1cc(O)ccc1OC[C@H](O)CN1CCCCC1`, for which a half-maximal effect (EC50) was put at 1.74 µM. Molecule `O=C(CCc1ccccc1)c1ccccc1OC[C@H](O)CNCCC(c1ccccc1)c1ccccc1` gave an EC50 of 0.724 µM. `O=C(CCc1ccccc1)c1ccccc1OC[C@H](O)CNc1ccccc1`: the midpoint of the response, the EC50, lay at 6.46 µM. In turn, `O=C(CCc1ccccc1)c1ccccc1OC[C@H](O)CNC1CCCCC1` had a half-maximal effective concentration (EC50) of 0.339 µM. Molecule `CC(C)N(C[C@@H](O)COc1ccc(O)cc1C(=O)CCc1ccccc1)C(C)C` showed an EC50 of 1.05 µM.

The molecule `CC(C)N(C[C@@H](O)COc1ccc(OCc2ccccc2)cc1C(=O)CCc1ccccc1)C(C)C` showed a concentration giving a half-maximal response (EC50) of 0.0813 µM. `O=C(CCc1ccccc1)c1cc(OCc2ccccc2)ccc1OC[C@H](O)CN1CCN(Cc2ccccc2)CC1`: the EC50 was 0.115 µM. Under `O=C(CCc1ccccc1)c1cc(O)ccc1OC[C@H](O)CN1CCN(Cc2ccccc2)CC1` stands 0.525 µM; under `CC(C)O[C@H](CCc1ccccc1)c1ccccc1OC[C@H](O)CN1CCCCC1`, 0.457 µM; under `CC(C)(C)O[C@H](CCc1ccccc1)c1ccccc1OC[C@H](O)CN1CCCCC1`, 0.398 µM.

For `O=C(c1ccccc1)c1ccccc1OC[C@H](O)CN1CCC(O)(c2ccccc2)CC1`, the EC50 is 0.309 µM. On to `O=C(c1ccccc1)c1ccccc1OC[C@H](O)CN1CCN(c2ccc(F)cc2)CC1`, for which the half-maximal effective concentration (EC50) was 0.148 µM. Take `CC(=O)c1ccccc1OC[C@H](O)CN1CCC(Cc2ccccc2)CC1`: a half-maximal response (EC50) required 0.355 µM. In the case of `CC(=O)c1ccccc1OC[C@H](O)CN1CCC(O)(c2ccccc2)CC1`, a half-maximal effect (EC50) was put at 3.16 µM. As for `Cc1ccccc1N1CCN(C[C@@H](O)COc2ccccc2C(=O)CCc2ccc(Cl)cc2)CC1`, the midpoint of the response, the EC50, lay at 0.0191 µM. Take `Cc1ccc(CCC(=O)c2ccccc2OC[C@H](O)CN2CCN(c3ccccc3C)CC2)cc1`: the 50% effective concentration (EC50) was 0.0182 µM. `COc1ccc(CCC(=O)c2ccccc2OC[C@H](O)CN2CCN(c3ccccc3C)CC2)cc1` had an EC50 of 0.0141 µM. As for `Cc1ccccc1N1CCN(C[C@@H](O)COc2ccccc2C(=O)CCc2ccc(Cl)c(Cl)c2)CC1`, the EC50 was 0.038 µM. Consider `CC(=O)O[C@@H](COc1ccccc1C(=O)CCc1ccccc1)CN1CCCCC1`, for which the response was half-maximal at 0.339 µM (EC50). `COC(=O)c1ccc(NC[C@@H](O)COc2ccccc2C(=O)CCc2ccccc2)cc1` gave an EC50 of 1.55 µM. Regarding `Cc1ccccc1N1CCN(C[C@@H](O)COc2ccc(Cl)cc2C(=O)CCc2ccccc2)CC1`, the EC50 was 0.0589 µM. Under `COc1ccc(OC[C@H](O)CN2CCN(c3ccccc3C)CC2)c(C(=O)CCc2ccccc2)c1` stands 0.178 µM; under `Cc1ccc(OC[C@H](O)CN2CCN(c3ccccc3C)CC2)c(C(=O)CCc2ccccc2)c1`, 0.0257 µM. For `O=C(CCc1ccccc1)c1ccccc1OC[C@H](O)CNc1ccc(C(F)(F)F)cc1`, the concentration for a half-maximal effect (EC50) is 8.51 µM. The molecule `O=C(CCc1ccccc1)c1ccccc1OC[C@H](O)CNc1ccc([N+](=O)[O-])cc1` had a half-maximal effective concentration (EC50) of 2.57 µM.

The molecule `CCC(=O)N(Cc1ccccc1)C[C@@H](O)COc1ccccc1C(=O)CCc1ccccc1` gave an EC50 of 1.66 µM. Consider `CCCN(C[C@@H](O)COc1ccccc1C(=O)CCc1ccccc1)C(=O)c1ccccc1`, for which the EC50 is 1.7 µM. `O=C(CCc1cccc2ccccc12)c1ccccc1OC[C@H](O)CN1CCOCC1` had an EC50 of 0.724 µM. The molecule `CC(C)N(C[C@@H](O)COc1ccccc1C(=O)CCc1cccc2ccccc12)C(C)C` had an EC50 of 0.468 µM. The value for `CCC(=O)c1ccccc1OC[C@H](O)CN1CCC(O)(c2ccccc2)CC1` was 0.302 µM; that for `O=C(CCc1cccc2ccccc12)c1ccccc1OC[C@H](O)CN1CCC(O)(c2ccccc2)CC1` was 0.0759 µM; that for `CC(=O)c1cccc(OC[C@H](O)CN2CCOCC2)c1` was 129 µM. Take `CC(=O)c1cccc(OC[C@H](O)CN2CCCCC2)c1`: the 50% effective concentration (EC50) is 9.12 µM.
